For one data set, the system named is P-glycoprotein (Pgp). Description: P-glycoprotein (Pgp) efflux assay. It is filed as in vitro ADME. The note with it: mouse; for Papp: PAMPA, read-out: PgP Transport mouse permeability; for efflux ratio: not told, read-out: PgP Transport mouse apical efflux ratio. As to the method: (§1) Compounds 1–3 were characterized in a hybrid reporter gene assay for their agoniztic effect on human nuclear receptors PPARα/γ/δ, RXRα, FXRα, RARα in HEK293T cells. Compound 1 was tested in an isothermal titration calorimetry (ITC) assay to measure direct binding affinity to the ligand-binding domain of PPARγ. ADME properties were measured in standardized assays at Roche.
(§2) SI11Absorption Distribution Metabolism and Excretion and Toxicity Data
(§3) To assess the drug-like characteristics of the newly designed PPAR modulators, a series of tests were conducted covering various aspects of absorption, distribution, metabolism, and excretion (ADME) properties. Specifically, these assessments included the parallel artificial membrane permeability assay (PAMPA) with permeation co- […]
efficients ([…]), LogD measurements, microsomal clearance, hepatocyte clearance, P-glycoprotein (Pgp) efflux ratio and binding and the unbound free fraction. […]
Table S14: Absorption distribution metabolism and excretion (ADME) properties of compounds 1 and 2. The […]
values for […], LogD, protein binding, P-glycoprotein (Pgp) efflux ratio and permeability, and hepato-cyte clearance are presented as the mean and standard deviation, with a sample size of N = 3, i.e., 3 technical replicates each. The values for microsomal clearance and CYP-inhibition represent single point measurements. […]
PgP Transport mouse apical efflux ratio - 1.6 1.2
PgP Transport mouse permeability (nm·sec−1) - 15 60 […]
For orientation: PAMPA measures passive passage across an artificial lipid membrane.

A further data set deals with CYP2C8 (Homo sapiens, UniProt P10632). Description: CYP inhibition dose-response. The note with it: substrate AMODIAQUINE
CYP2C8, sequence (P10632 whole entry): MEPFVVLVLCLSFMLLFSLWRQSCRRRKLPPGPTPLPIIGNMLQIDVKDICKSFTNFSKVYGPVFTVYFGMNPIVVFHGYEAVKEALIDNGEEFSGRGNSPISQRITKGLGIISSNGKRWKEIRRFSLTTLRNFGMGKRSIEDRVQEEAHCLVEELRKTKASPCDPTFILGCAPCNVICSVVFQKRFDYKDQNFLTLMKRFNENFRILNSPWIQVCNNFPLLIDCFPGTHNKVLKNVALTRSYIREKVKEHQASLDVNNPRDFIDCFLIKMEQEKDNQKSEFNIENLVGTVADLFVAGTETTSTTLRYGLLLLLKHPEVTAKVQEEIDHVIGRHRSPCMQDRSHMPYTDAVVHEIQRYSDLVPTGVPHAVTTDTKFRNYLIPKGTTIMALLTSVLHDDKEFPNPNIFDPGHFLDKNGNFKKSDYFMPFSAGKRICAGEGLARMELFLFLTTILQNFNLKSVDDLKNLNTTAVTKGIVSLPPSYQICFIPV
The class given is in vitro ADME. The protocol: as §2, §3
(§4) efficients ([…]), LogD measurements, microsomal clearance, hepatocyte clearance, P-glycoprotein (Pgp) efflux ratio and binding and the unbound free fraction. Furthermore, the evaluation of inhibition po-tential against cytochrome P450 isoenzymes (CYP) proteins was investigated. For seven selected CYP proteins (i.e., Cyp3A4, Cyp1A2, Cyp2B6, Cyp2C9, Cyp2D6, Cyp2C19, and Cyp2C8) the half maximal inhibitory con-centration (IC50) was determined. (Table S15). […]
(§5) activity in the CYP assays was found.
(§6) Table S14: Absorption distribution metabolism and excretion (ADME) properties of compounds 1 and 2. […]
(§7) The values for microsomal clearance and CYP-inhibition represent single point measurements. […]
(§8) Molecule Enzyme Substrate IC50 (µM)

In a further data set the target is CYP2C9 (Homo sapiens, UniProt P11712). Description: CYP inhibition dose-response. The note with it: substrate DICLOFENAC
CYP2C9, sequence (P11712 whole entry): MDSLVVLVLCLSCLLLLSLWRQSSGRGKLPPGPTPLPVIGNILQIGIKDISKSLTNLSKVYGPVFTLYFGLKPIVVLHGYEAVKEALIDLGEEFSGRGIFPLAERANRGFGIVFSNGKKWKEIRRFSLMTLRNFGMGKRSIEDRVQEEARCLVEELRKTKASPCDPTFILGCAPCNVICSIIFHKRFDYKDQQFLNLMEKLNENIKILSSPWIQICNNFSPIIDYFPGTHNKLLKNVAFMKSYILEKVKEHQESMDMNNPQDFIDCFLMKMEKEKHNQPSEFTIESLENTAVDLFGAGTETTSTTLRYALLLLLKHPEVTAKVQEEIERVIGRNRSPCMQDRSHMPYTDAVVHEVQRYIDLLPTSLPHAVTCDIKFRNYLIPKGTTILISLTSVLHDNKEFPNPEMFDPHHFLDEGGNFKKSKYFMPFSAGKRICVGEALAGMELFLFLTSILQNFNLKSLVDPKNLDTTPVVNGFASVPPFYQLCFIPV
It is filed as in vitro ADME. As to the method: as §2, §3, §4, §5, §6, §7, §8

The target in the next data set is CYP3A4 (Homo sapiens, UniProt P08684). Description: CYP inhibition dose-response. It is filed as in vitro ADME. Particulars: substrate MIDAZOLAM
CYP3A4, sequence (P08684 whole entry): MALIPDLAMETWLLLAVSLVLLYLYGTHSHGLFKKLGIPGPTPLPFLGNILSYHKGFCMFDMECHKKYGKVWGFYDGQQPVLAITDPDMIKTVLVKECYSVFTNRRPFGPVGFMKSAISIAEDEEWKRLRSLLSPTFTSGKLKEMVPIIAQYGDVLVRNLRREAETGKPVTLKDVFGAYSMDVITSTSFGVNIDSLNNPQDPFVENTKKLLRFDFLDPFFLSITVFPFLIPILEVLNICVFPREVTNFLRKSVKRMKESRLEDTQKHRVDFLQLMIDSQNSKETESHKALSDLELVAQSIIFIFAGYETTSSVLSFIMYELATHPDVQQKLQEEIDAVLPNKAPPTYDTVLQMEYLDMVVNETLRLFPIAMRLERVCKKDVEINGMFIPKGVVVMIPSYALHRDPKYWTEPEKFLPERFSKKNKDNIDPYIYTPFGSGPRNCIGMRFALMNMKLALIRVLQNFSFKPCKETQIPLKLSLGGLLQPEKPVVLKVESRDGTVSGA
The protocol:
as §2, §3, §4, §5, §6, §7, §8

The next data set has as its target CYP2D6 (Homo sapiens, UniProt P10635). Description: CYP inhibition dose-response. It is filed as in vitro ADME. The note with it: substrate DEXTROMETHORPHAN
As to the method: as §2, §3, §4, §5, §6, §7, §8

The target in data set [1] is T1, retinoid X receptor (RXR)α (Homo sapiens, UniProt P19793).
T1 construct: RXRα (pFA-CMV-h RXRα-LBD[105], 1 μM Bexarotene); expressed in transfected cells; host or cells: HEK293T
T1 sequence (P19793 227-458 limits assumed): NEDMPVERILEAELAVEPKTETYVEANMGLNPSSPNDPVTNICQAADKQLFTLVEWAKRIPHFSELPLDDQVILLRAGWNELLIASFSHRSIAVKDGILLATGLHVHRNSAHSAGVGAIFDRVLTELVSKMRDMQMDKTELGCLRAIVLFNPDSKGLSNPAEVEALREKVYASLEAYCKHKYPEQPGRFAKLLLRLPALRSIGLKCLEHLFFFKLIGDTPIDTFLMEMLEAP
Description: Nuclear receptor selectivity profiling, hybrid reporter gene assay, RXRα. It is filed as cell-based. The protocol:
as §1
PPAR activation was determined in uniform Gal4-hybrid reporter gene assays for the PPARα, PPARγ and PPARδ isoforms in HEK293T cells (German Collection of Microorganisms and Cell Culture GmbH, DSMZ) which were transiently transfected with pFR-Luc (Stratagene, La Jolla, CA, USA; reporter) and pRL-SV40 (Promega, Madison, WI, USA; internal control) and one pFA-CMV-hPPAR-LBD[97] clone, coding for the hinge region and ligand binding domain of the canonical isoform of human PPARα, PPARγ, PPARδ or respectively. Cells were cultured in Dulbecco’s modified Eagle’s medium (DMEM), high glucose supplemented with 10% fetal calf serum (FCS), sodium pyruvate (1 mM), penicillin (100 U ⋅ ml^-1), and streptomycin (100 μg ⋅ ml^-1) at 37 °C and 5% CO2 and seeded in 96-well plates (3 × 10^4 cells per well). After 24 h, medium was changed to Opti-MEM without supplements and cells were transiently transfected using Lipofectamine LTX reagent (Invitrogen) according to the manufacturer’s protocol. Five hours after transfection, cells were incubated with the test compounds in Opti-MEM supplemented with penicillin (100 U ⋅ ml^-1), streptomycin (100 μg ⋅ ml^-1) and 0.1% DMSO for 16 h before luciferase activity was measured using the Dual-Glo Luciferase Assay System (Promega) according to the manufacturer’s protocol on a Tecan Spark luminometer (Tecan Deutschland GmbH, Germany). Firefly luminescence was divided by Renilla luminescence and multiplied by 1000 resulting in relative light units (RLU) to normalize for transfection efficiency and cell growth. Fold activation was obtained by dividing the mean RLU of a test compound by the mean RLU of the untreated control. All samples were tested in at least three biologically independent experiments in duplicates. For dose-response curve fitting and calculation of EC50 values, the equation “[Agonist] versus response (variable slope—four parameters)” was used in GraphPad Prism (version 7.00, GraphPad Software, La Jolla, CA, USA) with fold activation data. The reference agonizts GW7647 (PPARα)[98],[99], pioglitazone (PPARγ)[100],[101] and L165,041 (PPARδ)[102],[103] were used to validate the assays and to monitor assay performance. Nuclear receptor selectivity profiling was performed with corresponding pFA-CMV-hNR-LBD clones and suitable reference agonizts on RARα (pFA-CMV-hRARα-LBD[104], 1 μM tretinoin), LXRα (pFA-CMV-hLXRα-LBD[104], 1 μM TO901317) and RXRα (pFA-CMV-h RXRα-LBD[105], 1 μM Bexarotene).
(In general: Reporter assays use an easily measured gene product as a stand-in for the process of interest.)

In the next data set the target is XANTHINE OXIDASE (Bos taurus, UniProt P80457). Description: Safety off-target panel, enzymatic. The class given is biochemical, Bovine. The note with it: single point. From the text: (§9) Table S9-S12 list all targets, their species, inhibition (%) and assay type for the experiments conducted in the
XANTHINE OXIDASE, sequence (P80457 whole entry): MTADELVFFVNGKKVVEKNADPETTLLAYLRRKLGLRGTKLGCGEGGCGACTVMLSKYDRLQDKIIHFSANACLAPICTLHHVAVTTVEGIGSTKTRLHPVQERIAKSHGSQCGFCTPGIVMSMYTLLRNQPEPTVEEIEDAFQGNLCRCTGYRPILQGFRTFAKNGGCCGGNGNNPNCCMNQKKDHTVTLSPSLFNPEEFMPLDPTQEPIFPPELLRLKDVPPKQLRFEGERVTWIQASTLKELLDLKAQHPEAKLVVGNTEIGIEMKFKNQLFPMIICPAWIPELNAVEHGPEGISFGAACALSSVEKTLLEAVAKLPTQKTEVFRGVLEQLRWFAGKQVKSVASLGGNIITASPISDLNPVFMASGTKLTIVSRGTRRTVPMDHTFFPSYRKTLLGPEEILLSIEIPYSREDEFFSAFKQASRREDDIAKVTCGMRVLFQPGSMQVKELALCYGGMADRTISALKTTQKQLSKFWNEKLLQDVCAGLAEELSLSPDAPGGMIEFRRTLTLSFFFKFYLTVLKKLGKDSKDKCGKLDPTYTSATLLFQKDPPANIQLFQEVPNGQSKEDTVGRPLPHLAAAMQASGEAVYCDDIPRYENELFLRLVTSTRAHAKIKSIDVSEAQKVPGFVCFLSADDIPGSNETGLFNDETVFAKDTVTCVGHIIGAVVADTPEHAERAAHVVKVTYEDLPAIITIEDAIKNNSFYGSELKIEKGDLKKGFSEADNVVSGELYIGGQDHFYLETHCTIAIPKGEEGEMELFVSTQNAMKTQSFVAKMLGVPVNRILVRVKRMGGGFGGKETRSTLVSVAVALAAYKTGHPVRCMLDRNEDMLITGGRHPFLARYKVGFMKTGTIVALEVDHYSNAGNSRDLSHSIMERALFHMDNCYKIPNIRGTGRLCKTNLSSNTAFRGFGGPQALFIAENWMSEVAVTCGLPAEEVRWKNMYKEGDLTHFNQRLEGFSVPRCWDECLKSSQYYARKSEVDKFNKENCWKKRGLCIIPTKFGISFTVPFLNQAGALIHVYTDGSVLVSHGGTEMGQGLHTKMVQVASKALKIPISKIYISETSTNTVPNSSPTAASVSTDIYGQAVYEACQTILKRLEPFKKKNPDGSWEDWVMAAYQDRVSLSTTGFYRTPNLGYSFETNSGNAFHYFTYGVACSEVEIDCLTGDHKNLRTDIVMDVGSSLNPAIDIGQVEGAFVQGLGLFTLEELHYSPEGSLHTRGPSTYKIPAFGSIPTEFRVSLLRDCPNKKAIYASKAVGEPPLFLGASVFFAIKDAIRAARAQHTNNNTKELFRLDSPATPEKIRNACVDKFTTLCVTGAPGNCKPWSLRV
(§10) off-targets. […] The numbers for mean
(§11) inhibition (%) represent single point measurements.
(§12) off-targets. […] The numbers for
(§13) mean inhibition (%) represent single point measurements.

In a further data set the target is ZAP70 (Homo sapiens, UniProt P43403). Description: Safety off-target panel, enzymatic. Particulars: single point. The class given is biochemical.
ZAP70, sequence (P43403 whole entry): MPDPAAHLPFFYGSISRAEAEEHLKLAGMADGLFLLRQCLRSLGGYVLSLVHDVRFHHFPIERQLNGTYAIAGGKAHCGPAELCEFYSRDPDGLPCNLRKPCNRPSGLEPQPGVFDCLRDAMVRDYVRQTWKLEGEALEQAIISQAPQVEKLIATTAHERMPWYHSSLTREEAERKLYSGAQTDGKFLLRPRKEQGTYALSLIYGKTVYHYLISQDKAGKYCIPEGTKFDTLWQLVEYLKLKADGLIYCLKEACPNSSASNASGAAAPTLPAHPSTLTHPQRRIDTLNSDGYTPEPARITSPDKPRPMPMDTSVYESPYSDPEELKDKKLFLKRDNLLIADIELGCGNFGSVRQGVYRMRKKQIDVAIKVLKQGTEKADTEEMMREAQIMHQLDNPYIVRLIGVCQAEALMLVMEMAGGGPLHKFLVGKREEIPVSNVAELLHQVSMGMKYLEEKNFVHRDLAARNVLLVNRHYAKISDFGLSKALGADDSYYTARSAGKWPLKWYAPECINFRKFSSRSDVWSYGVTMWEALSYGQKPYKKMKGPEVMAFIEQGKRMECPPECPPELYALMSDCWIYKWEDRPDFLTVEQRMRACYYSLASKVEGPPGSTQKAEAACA
Source text: as §9, §10, §11, §12, §13

The next data set has as its target GSK-3B (Homo sapiens, UniProt P49841). Description: Safety off-target panel, enzymatic. The class given is biochemical. The note with it: single point.
Source text: as §9, §10, §11, §12, §13

SMILES strings stand for the structures. Values joined by “and” are separate entries in the source; they are usually repeats but may differ in a detail not shown here. Equal entries are not always repeated. A value given as a limit tells only on which side of the number the result lay.

GSK-3B, sequence (P49841 whole entry): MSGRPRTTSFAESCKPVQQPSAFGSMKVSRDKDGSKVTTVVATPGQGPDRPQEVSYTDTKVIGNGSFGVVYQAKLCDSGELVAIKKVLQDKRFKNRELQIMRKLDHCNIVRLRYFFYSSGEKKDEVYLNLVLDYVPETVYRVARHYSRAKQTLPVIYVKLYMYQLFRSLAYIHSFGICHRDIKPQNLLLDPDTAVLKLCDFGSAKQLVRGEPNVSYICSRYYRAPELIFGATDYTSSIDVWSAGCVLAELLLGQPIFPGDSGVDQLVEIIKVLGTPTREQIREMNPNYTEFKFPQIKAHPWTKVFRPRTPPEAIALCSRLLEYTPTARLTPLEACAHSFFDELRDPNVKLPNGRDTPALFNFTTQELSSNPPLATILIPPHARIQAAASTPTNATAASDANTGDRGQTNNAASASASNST
CYP2D6, sequence (P10635 whole entry): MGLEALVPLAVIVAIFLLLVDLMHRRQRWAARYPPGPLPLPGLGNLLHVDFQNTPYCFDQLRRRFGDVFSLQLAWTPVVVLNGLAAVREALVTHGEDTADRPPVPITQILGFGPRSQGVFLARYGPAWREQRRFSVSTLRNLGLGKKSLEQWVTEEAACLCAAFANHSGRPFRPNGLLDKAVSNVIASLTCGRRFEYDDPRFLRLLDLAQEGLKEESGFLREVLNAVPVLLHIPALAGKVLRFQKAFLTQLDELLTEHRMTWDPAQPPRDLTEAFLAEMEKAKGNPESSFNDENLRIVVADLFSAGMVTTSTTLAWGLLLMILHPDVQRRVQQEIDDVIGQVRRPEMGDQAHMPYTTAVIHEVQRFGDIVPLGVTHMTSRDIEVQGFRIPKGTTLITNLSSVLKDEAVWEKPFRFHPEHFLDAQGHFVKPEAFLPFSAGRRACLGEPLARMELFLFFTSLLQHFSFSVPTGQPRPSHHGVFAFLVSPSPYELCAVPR

As usually defined, the IC50 is the concentration that inhibits the measured activity by half. A high value points to a need for much substance. In general, inhibition refers to the relative decrease from the control value, in per cent. Regarding `COc1ccc(Oc2ccc3ncn(CCOc4ccc(CCC(=O)O)cc4)c3c2)cc1` [Compound 2], the Papp in the data set with P-glycoprotein (Pgp) came to 6 ×10⁻⁶ cm/s. The efflux ratio in the data set on P-glycoprotein (Pgp) was determined as 1.2. Besides, the IC50 is 1.75 µM against CYP2C8, more than 20 µM against CYP2C9, more than 20 µM at CYP3A4 and more than 20 µM on CYP2D6. Further, the “RXRα reporter activation, replicate values (DMSO ctrl = 1,000)” value in [1] (3 µM) was 1,173 and 1,058 and 1,366; in [1] (10 µM) it was 1,398 and 1,193 and 1,167. Besides, the figures for the inhibition at 10 µM on XANTHINE OXIDASE, against ZAP70 and against GSK-3B were 0.4%, 3.5% and -20.3%, respectively.

Take `Cc1nnc(-c2ccc(OCCCOc3ccc(CCC(=O)O)c(F)c3)c(F)c2)s1` [Compound 1]: the Papp in the data set on P-glycoprotein (Pgp) came out at 1.5 ×10⁻⁶ cm/s. The efflux ratio in the data set with P-glycoprotein (Pgp) is 1.6. In addition, the IC50 on CYP2C8, against CYP2C9, at CYP3A4 and against CYP2D6 was more than 20 µM throughout. The “RXRα reporter activation, replicate values (DMSO ctrl = 1,000)” value in [1] (3 µM) is 1,140 and 1,672 and 0,965; in [1] (10 µM) it was 0,945 and 2,262 and 0,954. In addition, the inhibition at 10 µM against XANTHINE OXIDASE is -3.1%; at ZAP70, -0.3%; against GSK-3B it was 20.2%.

The record behind these values is article PMC11035696, “Prospective de novo drug design with deep interactome learning” (Nature Communications, 2024).
